24 molecules from patent US20110082130A1 (LIGAND PHARMACEUTICALS, INC., priority 2006, published 2011) can be followed below.

Structures are written as SMILES.

The first test deals with T1, chimeric human H3 receptor (Homo sapiens, UniProt Q9Y5N1).
T1 construct: made in house; host or cells: Sf9 insect cells (baculovirus); P2 membrane preparation
T1 sequence (Q9Y5N1 with tags, fused parts or gaps): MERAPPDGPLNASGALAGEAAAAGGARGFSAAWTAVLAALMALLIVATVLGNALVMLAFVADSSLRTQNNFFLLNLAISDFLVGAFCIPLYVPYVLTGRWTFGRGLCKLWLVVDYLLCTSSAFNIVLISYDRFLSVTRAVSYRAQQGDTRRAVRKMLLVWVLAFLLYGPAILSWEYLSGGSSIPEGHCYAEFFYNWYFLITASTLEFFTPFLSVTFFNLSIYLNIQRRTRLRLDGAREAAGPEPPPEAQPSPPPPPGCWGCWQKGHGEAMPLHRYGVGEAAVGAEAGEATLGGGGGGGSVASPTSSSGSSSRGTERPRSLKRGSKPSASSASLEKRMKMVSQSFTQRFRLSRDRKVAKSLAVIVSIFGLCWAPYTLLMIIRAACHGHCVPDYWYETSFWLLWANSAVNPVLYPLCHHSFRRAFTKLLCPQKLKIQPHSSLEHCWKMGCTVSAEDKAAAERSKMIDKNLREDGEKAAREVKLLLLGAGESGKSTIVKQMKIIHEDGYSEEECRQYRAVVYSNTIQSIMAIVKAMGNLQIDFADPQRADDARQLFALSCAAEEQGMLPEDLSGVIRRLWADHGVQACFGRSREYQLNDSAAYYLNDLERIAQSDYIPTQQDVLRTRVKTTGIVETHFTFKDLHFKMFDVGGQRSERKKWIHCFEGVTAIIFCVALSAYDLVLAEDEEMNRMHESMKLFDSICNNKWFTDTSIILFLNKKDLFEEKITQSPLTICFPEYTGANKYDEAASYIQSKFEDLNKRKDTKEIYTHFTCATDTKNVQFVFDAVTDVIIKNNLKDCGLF
Briefly: Chimeric human H3 receptor screening GTP binding assay (inhibition of histamine-stimulated GTP-gamma35S binding, Example 8). The class given is biochemical. The note with it: 4 μM of the compound, 1 μM histamine, "†" in Ki of Table II, read-out: percent inhibition of the signal obtained with 1 μM histamine. An outline of the steps:
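Values are percent inhibition of 1 μM histamine-stimulated GTP-gamma35S […] binding, with non-specific binding (10 μM GTP-gammaS) subtracted, by compounds tested at 4 μM. Membranes (35 μg) from Sf9 cells expressing chimeric human H3 with G-protein subunits were used in Tris pH 7.4 buffer with 10 μM GDP. Incubation lasted 60 min at room temperature, followed by filtration and scintillation counting.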
(In general: GTPγS is a poorly hydrolysed GTP analogue; its binding reports G protein activation.)
Regarding `CC(C)(C)c1ccc(-c2ccc3c(c2)CCN(CC(=O)N2CCN(C4CCC4)CC2)C3)cc1` [Compound 471, 6-(4-tert-butylphenyl)-2-[2-(4-cyclobutylpiperazin-1-yl)-2-oxoethyl]-1,2,3,4-tetrahydroisoquinoline], the inhibition at 4 µM was ≥ 90%. On the same count and under the same terms, the figure for `Cc1ccc(F)c(-c2ccc3c(c2)CCN(CC(=O)N2CCN(C4CCCC4)CC2)C3)c1` [Compound 424, 2-[2-(4-cyclopentylpiperazin-1-yl)-2-oxoethyl]-6-(2-fluoro-5-methylphenyl)-1,2,3,4-tetrahydroisoquinoline] is ≥ 90%.

As to `COc1ccc(C(C)C)cc1-c1nc2c(s1)CN(CC(=O)N1CCN(C3CCC3)CC1)CC2` [Compound 337, 5-[2-(4-cyclobutylpiperazin-1-yl)-2-oxoethyl]-2-(5-isopropyl-2-methoxyphenyl)-4,5,6,7-tetrahydro[1,3]thiazolo [5,4-c]pyridine], the inhibition at 4 µM is ≥ 90%. Same read-out and setting: next, `O=C(CN1CCc2cc(-c3cccc(F)c3)ccc2C1)N1CCN(C2CCCCC2)CC1` [Compound 412, 2-[2-(4-cyclohexylpiperazin-1-yl)-2-oxoethyl]-6-(3-fluorophenyl)-1,2,3,4-tetrahydroisoquinoline]: ≥ 90%. On the same count and under the same terms, next, `CCCCc1ccc(-c2ccc3c(c2)CCN(CC(=O)N2CCN(C(C)C)CC2)C3)cc1` [Compound 454, 6-(4-butylphenyl)-2-[2-(4-isopropylpiperazin-1-yl)-2-oxoethyl]-1,2,3,4-tetrahydroisoquinoline]: ≥ 90%; `Cc1cc(C)cc(-c2ccc3c(c2)CCN(CC(=O)N2CCN(C4CCCC4)CC2)C3)c1` [Compound 456, 2-[2-(4-cyclopentylpiperazin-1-yl)-2-oxoethyl]-6-(3,5-dimethylphenyl)-1,2,3,4-tetrahydroisoquinoline]: ≥ 90%. Still for that read-out and setting: next, `Cc1cc(-c2ccc3c(c2)CCN(CC(=O)N2CCN(C4CCCCC4)CC2)C3)ccc1F` [Compound 431, 2-[2-(4-cyclohexylpiperazin-1-yl)-2-oxoethyl]-6-(4-fluoro-3-methylphenyl)-1,2,3,4-tetrahydroisoquinoline]: ≥ 90%; `O=C(CN1CCc2cc(-c3ccc4ccccc4c3)ccc2C1)N1CCN(C2CCCC2)CC1` [Compound 417, 2-[2-(4-cyclopentylpiperazin-1-yl)-2-oxoethyl]-6-(2-naphthyl)-1,2,3,4-tetrahydroisoquinoline]: ≥ 90%; `CCCc1ccc(-c2ccc3c(c2)CCN(CC(=O)N2CCN(C4CCCC4)CC2)C3)cc1` [Compound 464, 2-[2-(4-cyclopentylpiperazin-1-yl)-2-oxoethyl]-6-(4-propylphenyl)-1,2,3,4-tetrahydroisoquinoline]: ≥ 90%. On to `O=C(CN1CCc2cc(-c3cccc(Cl)c3)ccc2C1)N1CCN(C2CCCC2)CC1` [Compound 402, 6-(3-chlorophenyl)-2-[2-(4-cyclopentylpiperazin-1-yl)-2-oxoethyl]-1,2,3,4-tetrahydroisoquinoline], for which the inhibition at 4 µM was ≥ 90%. The same measure, in the same setting: the figure for `Cc1ccc(-c2ccc3c(c2)CCN(CC(=O)N2CCN(C(C)C)CC2)C3)cc1C` [Compound 450, 6-(3,4-dimethylphenyl)-2-[2-(4-isopropylpiperazin-1-yl)-2-oxoethyl]-1,2,3,4-tetrahydroisoquinoline] is ≥ 90%; for `Cc1ccc(F)c(-c2ccc3c(c2)CCN(CC(=O)N2CCN(C4CCC4)CC2)C3)c1` [Compound 423, 2-[2-(4-cyclobutylpiperazin-1-yl)-2-oxoethyl]-6-(2-fluoro-5-methylphenyl)-1,2,3,4-tetrahydroisoquinoline] it is ≥ 90%.

The test is the same for the next values; noted with them: Table II "Ki", symbol †, 4 μM of the compound, 1 μM histamine, read-out: percent inhibition of the signal obtained with 1 μM histamine.
Turning to `CC(C)N1CCN(C(=O)CN2CCc3cc(-c4cccc(F)c4F)ccc3C2)CC1` [Compound 602, 6-(2,3-difluorophenyl)-2-[2-(4-isopropylpiperazin-1-yl)-2-oxoethyl]-1,2,3,4-tetrahydroisoquinoline], the inhibition at 4 µM is ≥ 90%. `COc1ccc(-c2ccc3c(c2)CCN(CC(=O)N2CCN(C(C)C)CC2)C3)cc1` [Compound 523, 2-[2-(4-isopropylpiperazin-1-yl)-2-oxoethyl]-6-(4-methoxyphenyl)-1,2,3,4-tetrahydroisoquinoline]: the inhibition at 4 µM was ≥ 90%. On the same count and under the same terms, next, `CC(C)C(C)N1C[C@@H]2C[C@H]1CN2C(=O)CN1CCc2cc(-c3cncnc3)ccc2C1` (stereo in doubt) [Compound 608, 2-{2-[(1S,4S)-5-(1,2-dimethylpropyl)-2,5-diazabicyclo[2.2.1]hept-2-yl]-2-oxoethyl}-6-pyrimidin-5-yl-1,2,3,4-tetrahydroisoquinoline]: ≥ 90%. The same measure, in the same setting: next, `CC(C)N1CCN(C(=O)CN2CCc3cc(-c4ccccc4Oc4ccccc4)ccc3C2)CC1` [Compound 578, 2-[2-(4-isopropylpiperazin-1-yl)-2-oxoethyl]-6-(2-phenoxyphenyl)-1,2,3,4-tetrahydroisoquinoline]: ≥ 90%; `CSc1cccc(-c2ccc3c(c2)CCN(CC(=O)N2CCN(C4CCCCC4)CC2)C3)c1` [Compound 496, 2-[2-(4-cyclohexylpiperazin-1-yl)-2-oxoethyl]-6-[3-(methylthio)phenyl]-1,2,3,4-tetrahydroisoquinoline]: ≥ 90%. Same read-out and setting: next, `COc1ccccc1-c1ccc2c(c1)CCN(CC(=O)N1CCN(C3CCC3)CC1)C2` [Compound 551, 2-[2-(4-cyclobutylpiperazin-1-yl)-2-oxoethyl]-6-(2-methoxyphenyl)-1,2,3,4-tetrahydroisoquinoline]: ≥ 90%.

In the case of `COc1ccc(C)cc1-c1ccc2c(c1)CCN(CC(=O)N1CCN(C3CCCCC3)CC1)C2` [Compound 574, 2-[2-(4-cyclohexylpiperazin-1-yl)-2-oxoethyl]-6-(2-methoxy-5-methylphenyl)-1,2,3,4-tetrahydroisoquinoline], the inhibition at 4 µM was ≥ 90%. On the same count and under the same terms, the figure for `COc1ccc(F)cc1-c1ccc2c(c1)CCN(CC(=O)N1CCN(C3CCCC3)CC1)C2` [Compound 571, 2-[2-(4-cyclopentylpiperazin-1-yl)-2-oxoethyl]-6-(5-fluoro-2-methoxyphenyl)-1,2,3,4-tetrahydroisoquinoline] is ≥ 90%. Regarding `COc1ccc(-c2ccc3c(c2)CCN(CC(=O)N2CCN(C4CCCC4)CC2)C3)c(C)c1` [Compound 549, 2-[2-(4-cyclopentylpiperazin-1-yl)-2-oxoethyl]-6-(4-methoxy-2-methylphenyl)-1,2,3,4-tetrahydroisoquinoline], the inhibition at 4 µM was ≥ 90%. Same read-out and setting: the figure for `COc1ccc(-c2ccc(-c3ccc4c(c3)CCN(CC(=O)N3CCN(C5CCCC5)CC3)C4)cc2)cc1` [Compound 499, 2-[2-(4-cyclopentylpiperazin-1-yl)-2-oxoethyl]-6-(4′-methoxybiphenyl-4-yl)-1,2,3,4-tetrahydroisoquinoline] is ≥ 90%. On the same count and under the same terms, next, `COc1ccc(C(C)C)cc1-c1ccc2c(c1)CCN(CC(=O)N1CCN(C3CCC3)CC1)C2` [Compound 554, 2-[2-(4-cyclobutylpiperazin-1-yl)-2-oxoethyl]-6-(5-isopropyl-2-methoxyphenyl)-1,2,3,4-tetrahydroisoquinoline]: ≥ 90%; `O=C(CN1CCc2cc(-c3ccc(F)cc3F)ccc2C1)N1CCN(C2CCCC2)CC1` [Compound 587, 2-[2-(4-cyclopentylpiperazin-1-yl)-2-oxoethyl]-6-(2,4-difluorophenyl)-1,2,3,4-tetrahydroisoquinoline]: ≥ 90%.

One may read the inhibition as how much of the control response was suppressed.
